No end group written: not given here.
What was measured:
C. elegans [1] = test: Drop avoidance assay of ascr #8; assay type: in vivo; conditions: in words
Description: Because the defect in male response to ascr #8 was significant, and the SWAA was designed to detect attractive behaviors, it was sought to determine if flp-3 loss-of-function (lof) animals were in fact avoiding ascr #8. Using a previously described drop avoidance assay, forward moving animals were exposed to a drop of either vehicle control or ascr #8 and scored the avoidance index. […] The hermaphroditic behavior was unaffected by the loss of flp-3. (FIG. 12F).
Assays were performed as described previously in Chute, C. D. & Srinivasan, J. Semin. Cell Dev. Biol. 33, 18-24 (2014); Chute, C. D. et al. Nat. Commun. 10, 3186 (2019); and Hilliard, M. A. et al., EMBO J. 23, 1101-1111 (2004). Fifty to sixty L4 worms were segregated by sex and stored at 20° C. for 5 h to overnight to be assayed as young adults. One to four hours prior to the assay, the lids of unseeded plates were tilted to allow any excess moisture to evaporate off the plates. At the time of the assay, 10 or more animals were transferred onto each of the dried, unseeded plates. A drop of either water or 1 μM ascr #8 was placed on the tail of forward moving animals, and their response was scored as either an avoidance response, or no response. The total number of avoidances was divided by the total number of drops to generate an avoidance index for that plate. This was repeated for at least 10 plates over at least three different days.

C. elegans [2] = test: Single worm attraction assay (SWAA) of ascarosides; assay type: in vivo; conditions: for dwell time in cue vs vehicle: 1 μM, in words
Description: The spot retention assay was adapted to allow for better characterization of individual worm behavior and robust interrogation of attraction to small molecules. The attractiveness of 1 μM ascr #8 (FIG. 11A) were compared across multiple strains of C. elegans (the wild-type N2 strain, the high incidence of male him-5 and him-8 strains, and the chemosensory cilia defective osm-3), using the novel behavioral assay, the single worm attraction assay (SWAA) (FIG. 11A). In this assay, individual animals were placed directly into the spot of the ascaroside cue (A) while simultaneously removing any potential of male-male contact. […] Likewise, a vehicle control (V) is also included, to account of any changes in dwell time that are driven by the components of the vehicle. The outer forty wells of a 48-well suspension culture plate (Olympus Plastics, Cat #: 25-103) were seeded with 200 μL of standard NGM agar. To prepare the plates for the assay, they were acclimated to room temperature, at which point each well was seeded with 65 μL of OP50 E. coli. The assay plates were then transferred to a 37° C. incubator with the lid tilted for 4 h to allow the bacterial culture to dry on the agar. Once the bacterial culture dried, the lid was replaced the plate was stored at 20° C. until used in the assay. Fifty to sixty L4 worms were segregated by sex and stored at 20° C. for 5 h to overnight to be assayed as young adults. 0.8 μL of either vehicle control or ascaroside #8 was placed in the center of the well corresponding to that condition within the quadrant being tested, following a random block design (FIG. 11A). A single worm was placed in each of the 10 wells to be assayed, and the plate was transferred to a light source and camera and recorded for 15 m. […] Raw dwell time values were calculated by subtracting the time a worm exited the cue (center of the well in spatial controls), from the time it entered, as in the SRA. This was determined per visit, and the average dwell time was calculated for each animal in the quadrant. Averages of the four-quadrant means were determined per plate, and a minimum of five plates were assayed per strain/condition. The mean raw dwell time across five plates was calculated and used for statistical analyses and graphical display. […] An “attractive visit” was first determined for each plate as any visit greater than two standard deviations above the mean dwell time within the vehicle control for that plate. Any individual visit meeting this threshold was scored as a “1”, and any below was scored a “0”. The percent visits per-worm that were attractive was determined, and the average of each quadrant taken. […] The average percent of attractive visits across five plates was calculated and used for statistical analyses and graphical display.

FRPR-16 = target: T1, FRPR-16 (Caenorhabditis elegans, UniProt Q21957); test: In vitro GPCR activation assay (CHO-K1 cells, aequorin, human Gα16), FRPR-16; assay type: cell-based, C. elegans; conditions: calcium/aequorin luminescence in transfected CHO-K1 cells
T1 sequence (Q21957 1-340): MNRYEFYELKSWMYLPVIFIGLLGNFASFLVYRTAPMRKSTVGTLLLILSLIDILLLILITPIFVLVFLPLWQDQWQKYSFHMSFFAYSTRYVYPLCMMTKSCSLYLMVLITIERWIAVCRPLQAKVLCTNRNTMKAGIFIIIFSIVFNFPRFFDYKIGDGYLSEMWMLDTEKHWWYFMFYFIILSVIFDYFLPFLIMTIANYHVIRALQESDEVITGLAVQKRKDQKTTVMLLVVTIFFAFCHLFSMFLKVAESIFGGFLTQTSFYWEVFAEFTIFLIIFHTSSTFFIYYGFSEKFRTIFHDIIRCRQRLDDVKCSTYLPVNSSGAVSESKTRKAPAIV
Description: (§1) The GPCR activation assay was performed as previously described Van Sinay, E. et al. Proc. Natl Acad. Sci. USA 114, E4065-e4074 (2017) and Peymen, K. et al. PLoS Genet. 15, e1007945 (2019). Briefly, npr-10 and frpr-16 cDNAs were cloned into the pcDNA3.1 TOPO expression vector (Thermo Fisher Scientific). A CHO-K1 cell line (PerkinElmer, ES-000-A24) stably expressing apo-aequorin targeted to the mitochondria (mtAEQ) and human Gα16 was transiently transfected with the receptor cDNA construct or the empty pcDNA3.1 vector using Lipofectamine LTX and Plus reagent (Thermo Fisher Scientific). Cells were shifted to 28° C. one day later and allowed to incubate for 24 h. On the day of the assay, cells were collected in BSA medium (DMEM/Ham's F12 with 15 mM HEPES, without phenol red, 0.1% BSA) and loaded with […] coelenterazine h (Thermo Fisher Scientific) for 4 h at room temperature. The incubated cells were then added to synthetic peptides dissolved in DMEM/BSA, and luminescence was measured for 30 s at […] using a Mithras LB940 (Berthold Technologies) or MicroBeta LumiJet luminometer (PerkinElmer). After 30 s of readout, 0.1% triton X-100 was added to lyse the cells, resulting in a maximal calcium response that was measured for 10 s. After initial screening, concentration-response curves were constructed for HPLC-purified FLP-3 peptides by subjecting the transfected cells to each peptide in a concentration range from 1 pM to 10 μM. Cells transfected with an empty vector were used as a negative control. Assays were performed in triplicate on at least two independent days. Concentration-response curves were fitted using Prism v. 7 (nonlinear regression analysis with a sigmoidal concentration-response equation).

NPR-10A = test: In vitro GPCR activation assay (CHO-K1 cells, aequorin, human Gα16), NPR-10A; assay type: cell-based, C. elegans; conditions: in words
Description: (§2) Using Chinese hamster ovarian (CHO) cell cultures stably expressing the promiscuous G protein, Gα16, and the calcium reporter, aequorin, it was observed that both isoforms of NPR-10 are activated by seven of the ten FLP-3 peptides, with half-maximal effective concentrations (EC50) in the nM range (FIG. 14A-FIG. 14H, Table V). […] This peptide contains an R-to-K mutation within the C-terminal motif, which may explain the lack of receptor activation.
The GPCR activation assay was performed as previously described Van Sinay, E. et al. Proc. Natl Acad. Sci. USA 114, E4065-e4074 (2017) and Peymen, K. et al. PLoS Genet. 15, e1007945 (2019). Briefly, npr-10 and frpr-16 cDNAs were cloned into the pcDNA3.1 TOPO expression vector (Thermo Fisher Scientific). A CHO-K1 cell line (PerkinElmer, ES-000-A24) stably expressing apo-aequorin targeted to the mitochondria (mtAEQ) and human Gα16 was transiently transfected with the receptor cDNA construct or the empty pcDNA3.1 vector using Lipofectamine LTX and Plus reagent (Thermo Fisher Scientific). […] The incubated cells were then added to synthetic peptides dissolved in DMEM/BSA, and luminescence was measured for 30 s at […] using a Mithras LB940 (Berthold Technologies) or MicroBeta LumiJet luminometer (PerkinElmer). After 30 s of readout, 0.1% triton X-100 was added to lyse the cells, resulting in a maximal calcium response that was measured for 10 s. […]

NPR-10B = target: T2, NPR-10B (Caenorhabditis elegans, UniProt Q6EUU1); test: In vitro GPCR activation assay (CHO-K1 cells, aequorin, human Gα16), NPR-10B; assay type: cell-based, C. elegans; conditions: in words
T2 sequence (Q6EUU1 1-362): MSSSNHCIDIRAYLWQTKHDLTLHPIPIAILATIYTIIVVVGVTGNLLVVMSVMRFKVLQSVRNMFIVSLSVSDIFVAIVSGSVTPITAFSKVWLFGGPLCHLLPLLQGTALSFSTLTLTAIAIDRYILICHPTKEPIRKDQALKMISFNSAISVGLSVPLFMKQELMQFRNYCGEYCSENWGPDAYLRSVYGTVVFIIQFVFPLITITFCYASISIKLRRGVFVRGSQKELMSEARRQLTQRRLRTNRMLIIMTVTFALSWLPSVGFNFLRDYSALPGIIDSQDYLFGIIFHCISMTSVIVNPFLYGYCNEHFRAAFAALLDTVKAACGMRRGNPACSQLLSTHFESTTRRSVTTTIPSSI
Description: as §2, §1

Row | Molecule | avoidance of the cue (C. elegans [1]; hermaphrodites) | avoidance of the cue (C. elegans [1]; wild-type males, 1 μM ascr #8) | dwell time in cue vs vehicle (C. elegans [2]; hermaphrodites, all strains) | dwell time in cue vs vehicle (C. elegans [2]; males, wild-type and him strains) | attractive visits to the cue (C. elegans [2]; males, 1 μM ascr #8) | EC50 (FRPR-16) | activation of NPR-10A (NPR-10A) | activation of NPR-10 (NPR-10B) (NPR-10B)
1 | C[C@H](CC/C=C/C(=O)Nc1ccc(C(=O)O)cc1)O[C@@H]1O[C@@H](C)[C@H](O)C[C@H]1O [ascr #8] | avoid | did not avoid the cue | significantly less time in ascr #8 than the vehicle | significant increase in the amount of time spent within ascr #8 spot compared to the vehicle control | 30-45% |  |  | 
2 | SADDSAPFGTMRF-NH2 [FLP-3-8, SADDSAPFGTMRFamide] |  |  |  |  |  | 1600 nM | did not activate | did not activate
